Data on one compound can be found in ChEMBL document CHEMBL4354805, “Discovery of MK-8719, a Potent O-GlcNAcase Inhibitor as a Potential Treatment for Tauopathies” (J Med Chem, 2019).

The nature of data set [1]: Half life in Beagle dog at 1 mg/kg, iv. The settings on record: in vivo. In kind it is ADME, organism-based, Canis lupus familiaris.
Data set [2] is described as follows: Volume of distribution at steady state in rhesus monkey at 1 mg/kg, iv or 3 mg/kg, po. In kind it is ADME, organism-based, Macaca mulatta. To be noted: in vivo, read-out: Vdss.
The nature of data set [3]: Fraction unbound in human plasma at 2.5 uM by equilibrium dialysis. In kind it is ADME, cell-free. For orientation: In equilibrium dialysis free small molecules cross a membrane that holds back macromolecules.
Data set [4] can be described thus: Ratio of drug level in monkey blood to plasma. To be noted: rhesus monkey, whole blood. In kind it is ADME, cell-free, Macaca mulatta.
Data set [5] in a line: Protein binding in human plasma. In kind it is ADME, cell-free. The settings on record: read-out: PPB.
For data set [6], the system named is Rattus norvegicus. Description: Elevation of O-protein in rat brain at 3 mg/kg, po measured after 24 hrs relative to control. The class given is functional.
Data set [7] is described as follows: Stability in human hepatocytes assessed as parent compound remaining at 10 uM incubated for 120 mins. The class given is ADME, cell-based, Hepatocyte. To be noted: read-out: Stability.
Data set [8] in a line: Clearance in Wistar Han rat at 2 mg/kg, iv. In kind it is ADME, organism-based. The settings on record: in vivo.
Data set [9] in a line: Volume of distribution at steady state in Wistar Han rat at 2 mg/kg, iv or 10 mg/kg, po. In kind it is ADME, organism-based. To be noted: in vivo, read-out: Vdss.
The nature of data set [10]: Toxicity in rat assessed as change in serum chemistry at 1000 mg/kg, po administered for 7 days and measured on day 8. The class given is organism-based. To be noted: in vivo, 168 h.
A short description of data set [11]: Stability in rat hepatocytes assessed as parent compound remaining at 10 uM incubated for 120 mins. The class given is ADME, cell-based, Hepatocyte. The settings on record: read-out: Stability.
Data set [12] deals with T1, Protein O-GlcNAcase (Homo sapiens, UniProt O60502).
T1 sequence (O60502 whole entry): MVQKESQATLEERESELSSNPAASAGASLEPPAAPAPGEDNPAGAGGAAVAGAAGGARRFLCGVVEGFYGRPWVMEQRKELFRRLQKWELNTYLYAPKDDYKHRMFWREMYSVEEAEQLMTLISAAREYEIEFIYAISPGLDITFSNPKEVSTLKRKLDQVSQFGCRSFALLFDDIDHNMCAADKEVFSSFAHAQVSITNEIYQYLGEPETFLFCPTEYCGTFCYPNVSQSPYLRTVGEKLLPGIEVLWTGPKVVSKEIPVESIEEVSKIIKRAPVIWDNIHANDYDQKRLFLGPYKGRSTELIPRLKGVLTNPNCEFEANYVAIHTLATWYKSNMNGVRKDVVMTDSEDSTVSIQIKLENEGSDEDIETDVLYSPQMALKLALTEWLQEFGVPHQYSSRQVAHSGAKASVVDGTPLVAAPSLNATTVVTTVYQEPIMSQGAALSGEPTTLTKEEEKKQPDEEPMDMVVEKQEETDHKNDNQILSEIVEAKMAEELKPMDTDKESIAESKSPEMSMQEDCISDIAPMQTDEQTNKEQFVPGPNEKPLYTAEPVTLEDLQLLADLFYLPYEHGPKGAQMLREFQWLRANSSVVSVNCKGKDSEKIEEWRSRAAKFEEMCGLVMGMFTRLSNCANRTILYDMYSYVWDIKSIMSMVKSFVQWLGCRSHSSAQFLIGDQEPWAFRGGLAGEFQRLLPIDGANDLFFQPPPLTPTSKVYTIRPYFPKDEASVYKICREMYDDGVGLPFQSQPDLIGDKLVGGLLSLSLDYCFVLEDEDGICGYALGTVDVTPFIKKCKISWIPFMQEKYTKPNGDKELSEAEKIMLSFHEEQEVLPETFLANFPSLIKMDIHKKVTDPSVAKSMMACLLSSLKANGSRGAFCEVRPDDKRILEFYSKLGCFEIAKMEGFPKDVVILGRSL
Description: Inhibition of recombinant human OGA.

Data set [13] in a line: Clearance in Beagle dog at 1 mg/kg, iv. The class given is ADME, organism-based, Canis lupus familiaris. To be noted: in vivo.
The nature of data set [14]: Half life in Wistar Han rat at 2 mg/kg, iv. The class given is ADME, organism-based. To be noted: in vivo.
Data set [15] has as its target T2, Protein O-GlcNAcase (Rattus norvegicus, UniProt Q8VIJ5).
T2 sequence (Q8VIJ5 whole entry): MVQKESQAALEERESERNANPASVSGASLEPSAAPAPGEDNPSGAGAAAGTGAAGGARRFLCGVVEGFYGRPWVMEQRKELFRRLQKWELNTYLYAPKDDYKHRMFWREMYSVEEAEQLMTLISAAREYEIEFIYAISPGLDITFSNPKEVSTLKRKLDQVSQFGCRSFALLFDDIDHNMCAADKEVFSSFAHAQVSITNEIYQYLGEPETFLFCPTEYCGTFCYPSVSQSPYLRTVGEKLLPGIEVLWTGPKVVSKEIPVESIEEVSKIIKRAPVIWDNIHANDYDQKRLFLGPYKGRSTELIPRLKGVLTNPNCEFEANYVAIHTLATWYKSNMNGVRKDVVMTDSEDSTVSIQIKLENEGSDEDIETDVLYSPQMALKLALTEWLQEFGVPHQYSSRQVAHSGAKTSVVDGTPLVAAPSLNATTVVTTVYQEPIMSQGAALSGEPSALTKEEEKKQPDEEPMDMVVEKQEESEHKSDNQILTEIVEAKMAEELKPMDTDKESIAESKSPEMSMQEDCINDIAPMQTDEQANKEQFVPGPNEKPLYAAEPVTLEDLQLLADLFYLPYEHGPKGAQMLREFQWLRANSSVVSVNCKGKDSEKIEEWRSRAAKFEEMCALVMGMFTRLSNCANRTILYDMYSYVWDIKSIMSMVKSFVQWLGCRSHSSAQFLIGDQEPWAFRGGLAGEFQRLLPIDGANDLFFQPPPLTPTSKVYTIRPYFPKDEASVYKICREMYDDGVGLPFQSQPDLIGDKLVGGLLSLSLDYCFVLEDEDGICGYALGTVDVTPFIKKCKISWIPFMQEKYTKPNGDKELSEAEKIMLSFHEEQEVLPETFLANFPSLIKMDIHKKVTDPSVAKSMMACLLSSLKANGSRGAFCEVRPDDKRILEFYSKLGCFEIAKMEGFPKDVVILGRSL
Put plainly: Inhibition of OGA in rat PC12 cells assessed as OGlcNAcylated protein level incubated for 24 hrs by ELISA. The class given is cell-based. A general note: ELISA stands for enzyme-linked immunosorbent assay.

Data set [16] can be described thus: Drug uptake in rat brain at 3 mg/kg, po measured after 8 hrs. The class given is ADME, organism-based. To be noted: in vivo.
A short description of data set [17]: Cmax in rat assessed as change in histomorphology at 1000 mg/kg, po administered for 7 days and measured on day 8. The settings on record: in vivo. More on the design: dose 1000 mg/kg, route oral. The class given is ADME, organism-based.
The nature of data set [18]: AUCN in rhesus monkey at 3 mg/kg, po. In kind it is ADME, organism-based, Macaca mulatta. To be noted: in vivo.
Data set [19] is described as follows: Toxicity in rat assessed as change in physical signs at 1000 mg/kg, po administered for 7 days and measured on day 8. In kind it is organism-based. The settings on record: in vivo, 168 h.
For data set [20], the system named is Rattus norvegicus. Description: Hemodynamic activity in telemetered rat at 380 mg/kg, po. The class given is ADME, organism-based. The settings on record: in vivo.
A short description of data set [21]: Half life in rhesus monkey at 1 mg/kg, iv. In kind it is ADME, organism-based, Macaca mulatta. To be noted: in vivo.
The nature of data set [22]: AUCN in Wistar Han rat at 10 mg/kg, po. In kind it is ADME, organism-based. The settings on record: in vivo.
Data set [23] is described as follows: Stability in dog hepatocytes assessed as parent compound remaining at 10 uM incubated for 120 mins. In kind it is ADME, cell-based, Canis lupus familiaris, Hepatocyte. The settings on record: read-out: Stability.
A short description of data set [24]: Ratio of drug level in human blood to plasma. The class given is ADME, cell-free. The settings on record: whole blood.

Take `CCNC1=N[C@@H]2[C@@H](O)[C@H](O)[C@@H](C(F)F)O[C@@H]2S1`: the half-life (as a rule, the time needed for the level to fall by half in the phase considered) in data set [1] was 2.3 h; in data set [14], 1.9 h; in data set [21], 1.4 h. Also, the Vd in [2] stood at 3.1 L/kg; in data set [9], 3.7 L/kg. The same compound showed a fraction unbound at 2.5 µM in [3] of 0.99. Moreover, the blood plasma ratio in data set [4] and in data set [24] was 0.9 to 1.1 each time. Further, in data set [5], the fraction unbound was more than 0.95. Moreover, in the data set with Rattus norvegicus [6], the “fold change (FC)” value worked out at 2.17. Moreover, the remaining at 2 h, 10 µM in data set [7] came out at 90%; in [11], 96%; in data set [23], 91%. Also, the clearance (in general, the volume of plasma or blood freed of the substance per unit of time) in data set [8] worked out at 36.7 mL/min/kg; in data set [13], 11.7 mL/min/kg. For the same compound, the Activity result (in data set [10]; in data set [19]; in the data set on Rattus norvegicus [20]) was “Non-Toxic” throughout. Moreover, the Ki (as a rule, a measure of affinity in units of concentration, obtained from inhibition or displacement) at Protein O-GlcNAcase [12] was 7.9 nM. For the same compound, the EC50 (in general, the concentration that produces a half-maximal response) on Protein O-GlcNAcase [15] was 52.7 nM. The Drug uptake in data set [16] was determined as 0.219 nmol/g. Also, in [17], the Cmax – broadly, the highest concentration seen after dosing – was 226 µM. Also, the AUC/dose in data set [18] was 0.61 µM·kg·h/mg; in [22], 1.4 µM·kg·h/mg.
